Measured values as given in ChEMBL document CHEMBL1137346, “Carbonic anhydrase inhibitors: clash with Ala65 as a means for designing inhibitors with low affinity for the ubiquitous isozyme II, exemplified by the crystal structure of the topiramate sulfamide analogue” (J Med Chem, 2006).

What was measured:
Carbonic anhydrase 14 = Carbonic anhydrase 14 (Homo sapiens, UniProt Q9ULX7)
Carbonic anhydrase 13 = Carbonic anhydrase 13 (Mus musculus, UniProt Q9D6N1)
Carbonic anhydrase 7 = Carbonic anhydrase 7 (Homo sapiens, UniProt P43166)
Sequence of Carbonic anhydrase 7 (P43166 whole entry): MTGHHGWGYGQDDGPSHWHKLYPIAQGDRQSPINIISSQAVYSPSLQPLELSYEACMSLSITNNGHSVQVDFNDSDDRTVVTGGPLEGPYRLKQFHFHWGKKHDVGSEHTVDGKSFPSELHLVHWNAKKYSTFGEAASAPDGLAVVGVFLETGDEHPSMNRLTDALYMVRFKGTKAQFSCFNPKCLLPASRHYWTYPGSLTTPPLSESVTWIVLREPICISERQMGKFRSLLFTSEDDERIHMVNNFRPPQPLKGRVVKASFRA

[1] = biological target: Carbonic anhydrase 5A, mitochondrial (Homo sapiens, UniProt P35218)
Sequence of Carbonic anhydrase 5A, mitochondrial (P35218 whole entry): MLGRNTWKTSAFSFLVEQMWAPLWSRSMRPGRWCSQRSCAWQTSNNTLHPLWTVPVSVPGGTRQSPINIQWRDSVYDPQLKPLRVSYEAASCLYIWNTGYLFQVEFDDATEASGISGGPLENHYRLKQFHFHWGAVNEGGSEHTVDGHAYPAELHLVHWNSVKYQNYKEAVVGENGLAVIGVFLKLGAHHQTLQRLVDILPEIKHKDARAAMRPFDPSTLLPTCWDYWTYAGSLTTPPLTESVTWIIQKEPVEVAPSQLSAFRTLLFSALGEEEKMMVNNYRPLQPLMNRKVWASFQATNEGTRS

[2] = biological target: Carbonic anhydrase 5B, mitochondrial (Homo sapiens, UniProt Q9Y2D0)
Sequence of Carbonic anhydrase 5B, mitochondrial (Q9Y2D0 whole entry): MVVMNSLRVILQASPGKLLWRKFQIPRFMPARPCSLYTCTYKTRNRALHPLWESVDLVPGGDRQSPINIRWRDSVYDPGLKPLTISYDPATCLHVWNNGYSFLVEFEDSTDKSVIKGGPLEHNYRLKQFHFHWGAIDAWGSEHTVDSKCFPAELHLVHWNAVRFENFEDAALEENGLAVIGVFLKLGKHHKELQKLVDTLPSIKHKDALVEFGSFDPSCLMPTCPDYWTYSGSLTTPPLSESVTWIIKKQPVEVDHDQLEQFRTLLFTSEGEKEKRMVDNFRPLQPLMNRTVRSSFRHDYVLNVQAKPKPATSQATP

Carbonic anhydrase 4 = Carbonic anhydrase 4 (Homo sapiens, UniProt P22748)
Sequence of Carbonic anhydrase 4 (P22748 whole entry): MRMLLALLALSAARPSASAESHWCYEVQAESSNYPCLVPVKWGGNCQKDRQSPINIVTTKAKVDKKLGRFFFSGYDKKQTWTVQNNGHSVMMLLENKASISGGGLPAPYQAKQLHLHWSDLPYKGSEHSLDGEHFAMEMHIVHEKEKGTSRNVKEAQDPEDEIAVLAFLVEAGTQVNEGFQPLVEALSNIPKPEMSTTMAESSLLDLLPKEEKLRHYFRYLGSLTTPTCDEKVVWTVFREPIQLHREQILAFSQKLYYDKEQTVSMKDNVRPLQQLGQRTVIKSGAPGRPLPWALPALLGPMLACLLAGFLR

Sequence of Carbonic anhydrase 13 (Q9D6N1 whole entry): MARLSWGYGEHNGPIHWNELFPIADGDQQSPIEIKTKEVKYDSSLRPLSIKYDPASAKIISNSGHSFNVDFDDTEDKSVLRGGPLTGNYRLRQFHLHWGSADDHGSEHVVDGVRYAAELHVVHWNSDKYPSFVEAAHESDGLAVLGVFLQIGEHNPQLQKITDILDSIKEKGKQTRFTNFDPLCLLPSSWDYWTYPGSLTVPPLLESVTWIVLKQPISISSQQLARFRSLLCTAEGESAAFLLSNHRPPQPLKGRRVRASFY
Sequence of Carbonic anhydrase 14 (Q9ULX7 whole entry): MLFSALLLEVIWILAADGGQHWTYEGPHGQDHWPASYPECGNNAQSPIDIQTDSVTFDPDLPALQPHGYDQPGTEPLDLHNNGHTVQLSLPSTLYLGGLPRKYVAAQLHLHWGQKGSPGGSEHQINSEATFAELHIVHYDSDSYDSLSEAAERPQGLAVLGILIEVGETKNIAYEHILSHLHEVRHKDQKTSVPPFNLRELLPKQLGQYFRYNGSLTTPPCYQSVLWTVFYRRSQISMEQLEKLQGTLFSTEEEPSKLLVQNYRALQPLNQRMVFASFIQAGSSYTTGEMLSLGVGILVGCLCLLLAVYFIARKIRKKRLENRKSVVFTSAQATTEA

Compound: CC1(C)O[C@@H]2[C@@H](CO[C@@]3(CNS(N)(=O)=O)OC(C)(C)O[C@@H]23)O1
- Ki (Carbonic anhydrase 14): 25 nM
- Ki (Carbonic anhydrase 13): 30 nM
- Ki (Carbonic anhydrase 7): 35 nM
- Ki [1]: 32 nM
- Ki [2]: 21 nM
- Ki (Carbonic anhydrase 4): 941 nM
